Among the data in ChEMBL document CHEMBL5500363, “Discovery of novel ocotillol derivatives modulating glucocorticoid receptor/NF-κB signaling for the treatment of sepsis” (Eur J Med Chem, 2024) are Activity, inhibition and IC50 values, retold here.

The test system of data set [1] is RAW264.7. Briefly: Downregulation of glucocorticoid receptor in LPS-treated mouse RAW264.7 cells at 1 uM incubated for 24 hrs by qRT-PCR analysis. Format: functional, cell-based.
For data set [2], the system named is RAW264.7. As to the kind of experiment: Downregulation of glucocorticoid receptor in mouse RAW264.7 cells at 1 uM incubated for 24 hrs by Western blot analysis. Format: functional, cell-based. (In western blotting, separated proteins are transferred to a membrane and probed.)
Data set [3] relates to RAW264.7. Briefly: Cytotoxicity against mouse RAW264.7 cells assessed as cell viability at 40 uM incubated for 24 hrs by MTT assay. Format: toxicity, cell-based. The settings on record: raw264.7, 24 h.
Data set [4] relates to Mus musculus. As to the kind of experiment: Anti-septic activity in LPS-induced sepsis BALB/c mouse assessed as reduction in serum CRP level at 30 mg/kg administered via gavage for 3 days followed by LPS treatment for 6 hrs. Format: functional, organism-based. The settings on record: time 78.0 hrs.
Data set [5] concerns RAW264.7. As to the kind of experiment: Anti-inflammatory activity in mouse RAW264.7 cells assessed as decrease in LPS-induced I-kappaB-alpha phosphorylation at 20 uM pretreated for 2 hrs followed by LPS stimulation for 24 hrs by Western blot analysis. Format: functional, cell-based. The settings on record: time 26.0 hrs.
For data set [6], the system named is RAW264.7. Briefly: Anti-inflammatory activity in LPS-treated mouse RAW264.7 cells assessed as reversal of nuclear translocation of p65 at 20 uM pretreated for 2 hrs followed by LPS stimulation for 24 hrs by immunofluorescence analysis. Format: functional, cell-based. The settings on record: time 26.0 hrs.
Data set [7] has as its system RAW264.7. As to the kind of experiment: Effect on KLF9 mRNA expression in mouse RAW264.7 cells by qPCR analysis. Format: functional, cell-based. In general terms: In qPCR the cycle at which signal appears reflects the starting amount.
For data set [8], the system named is Mus musculus. As to the kind of experiment: Anti-septic activity in LPS-induced sepsis BALB/c mouse assessed as reduction in serum ALT level at 30 mg/kg administered via gavage for 3 days followed by LPS treatment for 6 hrs. Format: functional, organism-based. The settings on record: time 78.0 hrs.
Data set [9] deals with Mus musculus. Briefly: Anti-septic activity in LPS-induced sepsis BALB/c mouse assessed as reduction in serum AST level at 30 mg/kg administered via gavage for 3 days followed by LPS treatment for 6 hrs. Format: functional, organism-based. The settings on record: time 78.0 hrs.
The subject of data set [10] is RAW264.7. Briefly: Inhibition of LPS-induced NO production in mouse RAW264.7 cells at 10 uM pretreated for 2 hrs followed by LPS stimulation for 24 hrs by Griess assay relative to control. Format: functional. The settings on record: time 26 hrs.
In data set [11] the test system is RAW264.7. Briefly: Inhibition of LPS-induced NO production in mouse RAW264.7 cells at 5 uM pretreated for 2 hrs followed by LPS stimulation for 24 hrs by Griess assay relative to control. Format: functional. The settings on record: time 26 hrs. Background: The Griess reaction detects nitrite, a stable product of nitric oxide.
The test system of data set [12] is Mus musculus. As to the kind of experiment: Downregulation of p65 phosphorylation in liver of LPS-induced sepsis BALB/c mouse model at 7.5 to 30 mg/kg administered via gavage for 3 days followed by LPS treatment for 6 hrs by Western blot analysis. Format: functional, organism-based. The settings on record: dose 7.5-30 mg/kg, time 78.0 hrs.
Data set [13] deals with RAW264.7. As to the kind of experiment: Anti-inflammatory activity in mouse RAW264.7 cells assessed as decrease in LPS-induced p65 phosphorylation at 20 uM pretreated for 2 hrs followed by LPS stimulation for 24 hrs by Western blot analysis. Format: functional, cell-based. The settings on record: time 26.0 hrs.
Data set [14] relates to RAW264.7. Briefly: Inhibition of LPS-induced NO production in mouse RAW264.7 cells pretreated for 2 hrs followed by LPS stimulation for 24 hrs by Griess assay. Format: functional, cell-based.
Data set [15] relates to Mus musculus. As to the kind of experiment: Downregulation of I-kappa-B-alpha phosphorylation in liver of LPS-induced sepsis BALB/c mouse model at 7.5 to 30 mg/kg administered via gavage for 3 days followed by LPS treatment for 6 hrs by Western blot analysis. The settings on record: dose 7.5-30 mg/kg, time 78.0 hrs. Format: functional, organism-based.
Data set [16] deals with T1, Glucocorticoid receptor (Mus musculus) (UniProt P06537).
T1 sequence (whole entry): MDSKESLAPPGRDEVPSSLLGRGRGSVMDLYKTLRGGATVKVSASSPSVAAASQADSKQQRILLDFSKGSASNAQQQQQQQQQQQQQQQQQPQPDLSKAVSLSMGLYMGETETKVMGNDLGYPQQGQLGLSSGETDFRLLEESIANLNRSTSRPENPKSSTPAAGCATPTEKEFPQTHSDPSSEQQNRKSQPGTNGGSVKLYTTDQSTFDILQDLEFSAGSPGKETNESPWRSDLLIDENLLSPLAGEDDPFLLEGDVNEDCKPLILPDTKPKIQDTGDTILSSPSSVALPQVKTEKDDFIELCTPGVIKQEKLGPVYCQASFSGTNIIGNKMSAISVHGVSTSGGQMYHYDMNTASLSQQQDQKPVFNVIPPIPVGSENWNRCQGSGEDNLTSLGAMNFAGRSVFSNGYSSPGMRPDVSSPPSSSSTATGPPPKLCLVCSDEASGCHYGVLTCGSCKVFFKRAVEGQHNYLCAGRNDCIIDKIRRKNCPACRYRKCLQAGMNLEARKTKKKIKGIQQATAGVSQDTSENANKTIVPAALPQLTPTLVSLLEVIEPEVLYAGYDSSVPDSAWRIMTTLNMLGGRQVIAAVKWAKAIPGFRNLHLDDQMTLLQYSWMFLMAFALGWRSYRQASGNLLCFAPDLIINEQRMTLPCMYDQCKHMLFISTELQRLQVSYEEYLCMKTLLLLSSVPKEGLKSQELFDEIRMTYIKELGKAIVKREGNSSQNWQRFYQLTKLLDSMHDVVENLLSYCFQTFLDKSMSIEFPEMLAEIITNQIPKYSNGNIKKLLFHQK
Briefly: Stabilization of glucocorticoid receptor in mouse RAW264.7 cells assessed as blockade of CHX-induced protein degradation at 20 uM incubated for 24 hrs by Western blot analysis. Format: cell-based.

For data set [17], the system named is RAW264.7. As to the kind of experiment: Inhibition of LPS-induced NO production in mouse RAW264.7 cells at 20 uM pretreated for 2 hrs followed by LPS stimulation for 24 hrs by Griess assay relative to control. Format: functional. The settings on record: time 26 hrs.

Structures are written as SMILES. pIC50: −log10 of the molar value. Active and inactive are the calls of the source. The calls are words filed in the database; no cut-off is given here.

With `C[C@@H]1C[C@H]2[C@@H]3CCC4=CC(=O)C=C[C@]4(C)[C@@]3(F)[C@@H](O)C[C@]2(C)[C@@]1(O)C(=O)CO`, the outcome with RAW264.7 [1] and in the data set with RAW264.7 [2] was Active.

`CC(=O)Nc1nc2c(s1)C[C@]1(C)[C@H]3C[C@@H](O)[C@@H]4C([C@]5(C)CC[C@H](C(C)(C)O)O5)CC[C@@]4(C)[C@]3(C)CC[C@H]1C2(C)C` (stereo partly specified): the Activity entry with RAW264.7 [3] was “Toxic”.

As to `Cc1nnc(NC(=O)CCC(=O)O[C@H]2CC[C@]3(C)[C@H]4C[C@@H](O)[C@@H]5C([C@]6(C)CC[C@@H](C(C)(C)O)O6)CC[C@@]5(C)[C@]4(C)CC[C@H]3C2(C)C)s1` (stereo partly specified), the Activity entry in the data set with RAW264.7 [3] is given as “Toxic”.

For `CC(C)(O)[C@H]1CC[C@@](C)(C2CC[C@]3(C)[C@@H]2[C@H](O)C[C@@H]2[C@@]4(C)CC[C@H](OC(=O)CCC(=O)Nc5nnc(Br)s5)C(C)(C)[C@@H]4CC[C@]23C)O1` (stereo partly specified), the Activity entry in the data set on RAW264.7 [3] is recorded as “Toxic”.

As to `CC(C)(C)OC(=O)NCCCCCC(=O)Nc1nc2c(s1)C[C@]1(C)[C@H]3C[C@@H](O)[C@@H]4C([C@]5(C)CC[C@H](C(C)(C)O)O5)CC[C@@]4(C)[C@]3(C)CC[C@H]1C2(C)C` (stereo partly specified), in the data set on RAW264.7 [3], the Activity entry was “Toxic”.

The inhibition is the share of the control response that was lost under treatment. The term pIC50 denotes the negative decadic logarithm of the IC50, by convention in mol/L. Take `CC(C)=CCC[C@@](C)(O)C1CC[C@]2(C)[C@@H]1[C@H](O)C[C@@H]1[C@@]3(C)CC[C@H](O)C(C)(C)[C@@H]3CC[C@]12C` (stereo partly specified): the result in the data set on Mus musculus [4], with RAW264.7 [5], in the data set on RAW264.7 [6], in the data set with Mus musculus [8], in the data set with Mus musculus [9] and in the data set on RAW264.7 [13] was Active. Besides, the outcome (with RAW264.7 [7]; in the data set on Mus musculus [12]; in the data set on Mus musculus [15]; in data set [16]) was inactive. The inhibition at 10 µM with RAW264.7 [10] was 11.2%. The inhibition at 5 µM in the data set on RAW264.7 [11] is 7.09%. The pIC50 with RAW264.7 [14] was 4.46. Also, the inhibition at 20 µM with RAW264.7 [17] is 31.4%.

For `CC(C)(C)OC(=O)NCCCC(=O)Nc1nc2c(s1)C[C@]1(C)[C@H]3C[C@@H](O)[C@@H]4C([C@]5(C)CC[C@H](C(C)(C)O)O5)CC[C@@]4(C)[C@]3(C)CC[C@H]1C2(C)C` (stereo partly specified), in the data set on RAW264.7 [3], the Activity result was “Toxic”.
